Data reported in US12653900B2, “Antibody drug conjugates comprising ecteinascidin derivatives” (PHARMA MAR, S.A., priority 2018, dated 2026).
In brackets after ≈: the same amount, converted by molar mass. Several values for one entry are separate records, joined by “and”; a condition that tells them apart may be missing. Identical values can stand only once. Like-named read-outs stand apart in the source and are kept apart here.

What was measured:
MDA-MB-231 = experiment: cells; type: cell-based; settings: MDA-MB-231, 72 hours treatment, SRB
Description: (§1) Evaluation of Cytotoxic Activity Using the SRB and the MTT Colorimetric Assays

HT29 = experiment: cells; type: cell-based; settings: HT29, 72 hours treatment, SRB
Description: as §1

PSN1 = type: cell-based; settings: PSN1, 72 hours treatment, SRB
Description: as §1

A549 = type: cell-based; settings: A549, 72 hours treatment, SRB
Description: as §1

[1] = tested on: SK-BR-3, HCC-1954, MDA-MB-231 and MCF-7 cells; experiment: In vitro cytotoxicity across the HER2 breast cancer cell panel and HER2 selectivity; type: cell-based
Protocol: For SK-BR-3, HCC-1954, MDA-MB-231 and MCF-7 cells, a colorimetric assay using Sulforhodamine B (SRB) was adapted for quantitative measurement of cell growth and cytotoxicity, as described in V. Vichai and K. Kirtikara. Sulforhodamine B colorimetric assay for cytotoxicity screening. Nature Protocols, 2006, 1, 1112-1116. Briefly, cells were seeded in 96-well microtiter plates and allowed to stand for 24 hours in drug-free medium before treatment with vehicle alone or with the tested substances for 72 hours.
(§2) Cell survival was expressed as percentage of control, untreated cell survival.
Standard dose-response (DR) curves for 72 hours incubation with the tested substances were performed.

[2] = tested on: HT-1080, NB 4, Raji and RPMI 8226 cells; experiment: In vitro cytotoxicity across the CD13 cell panel and CD13 selectivity; type: cell-based, human; settings: CD13 positive and negative cell lines
Description: as §2

Raji (CD13−) = experiment: In vitro cytotoxicity of ADCs and related reagents, MTT assay; type: cell-based, human; settings: Raji cells, geometric mean of the IC50 values of three experiments
Protocol: (§3) Briefly, cells were seeded in 96-well trays and treated as above and after 72 hours of exposure to the tested substances cellular viability was estimated from conversion of MTT (Sigma, St Louis, MO, USA) to its coloured reaction product, MTT-formazan, which was dissolved in DMSO to measure its absorbance at 540 nm in a microplate spectrophotometer.
as §2

RPMI 8226 (CD13−) = experiment: as above; type: cell-based, human; settings: RPMI8226 cells, geometric mean of the IC50 values of three experiments
Protocol: as §3, §2

NB 4 (CD13+) = experiment: as above; type: cell-based, human; settings: NB-4 cells, geometric mean of the IC50 values of three experiments
Protocol: as §3, §2

HCC-1954 (HER2+) = experiment: In vitro cytotoxicity of ADCs and related reagents, SRB assay; type: cell-based; settings: Homo sapiens, HCC1954
Protocol: (§4) Sulforhodamine B colorimetric assay for cytotoxicity screening. […] Briefly, cells were seeded in 96-well microtiter plates and allowed to stand for 24 hours in drug-free medium before treatment with vehicle alone or with the tested substances for 72 hours.
as §2

MCF-7 (HER2−) = experiment: as above; type: cell-based; settings: Homo sapiens, MCF7
Protocol: as §4, §2

SK-BR-3 (HER2+) = experiment: as above; type: cell-based; settings: Homo sapiens
Protocol: as §4, §2

MDA-MB-231 (HER2−) = experiment: as above; type: cell-based; settings: Homo sapiens
Protocol: as §4, §2

[3] = read-out: LC50 (the source's name)
[4] = Homo sapiens, read-out: IC50 values, range over the four cell lines
[5] = Homo sapiens, read-out: geometric mean IC50 value across the whole cell panel
[6] = HCC-1954, HER2 positive, 72 hours, read-out: IC50
[7] = MCF-7, HER2 negative, 72 hours, read-out: IC50
[8] = SK-BR-3, HER2 positive, 72 hours, read-out: IC50
[9] = MDA-MB-231, HER2 negative, 72 hours, read-out: IC50

Row | SMILES | TGI (HT29) | TGI (PSN1) | TGI (A549) | IC50 [1, 4] | IC50 [1, 5] | IC50 (HCC-1954 (HER2+); [6]) | IC50 (MCF-7 (HER2−); [7]) | IC50 (SK-BR-3 (HER2+); [8]) | IC50 (MDA-MB-231 (HER2−); [9]) | also measured
1 | COc1c(C)cc2c(c1O)C1C3C4SCC5(NC(COC(C)=O)Cc6c5[nH]c5ccccc65)C(=O)OCC(c5c6c(c(C)c(OC(C)=O)c54)OCO6)N3C(C#N)C(C2)N1C (stereo not shown) [3a-S] | 3.23E-09 Molar | 3.59E-09 Molar | 3.23E-09 Molar |  |  |  |  |  |  | GI50 (MDA-MB-231): 2.87 nM; TGI (MDA-MB-231): 3.59E-09 Molar; CC50 (MDA-MB-231; [3]): 4.9 nM; GI50 (HT29): 2.99 nM; CC50 (HT29; [3]): > 120 nM; GI50 (PSN1): 2.15 nM; CC50 (PSN1; [3]): 12 nM; GI50 (A549): 3.11 nM; LC50 (concentration giving 50% net cell kill) (A549): > 120 nM
2 | COc1c(C)cc2c(c1O)[C@@H]1[C@@H]3[C@@H]4SC[C@]5(N[C@@H](CN)Cc6c5[nH]c5ccccc65)C(=O)OC[C@@H](c5c6c(c(C)c(OC(C)=O)c54)OCO6)N3[C@@H](C#N)[C@H](C2)N1C [11-R] |  |  |  |  |  |  |  |  |  | geometric mean IC50 value across the whole cell panel ([1]; SK-BR-3, HCC-1954, MDA-MB-231, MCF-7): 0.79 ng/mL; IC50 ([1]; SK-BR-3, HCC-1954, MDA-MB-231, MCF-7, read-out: geometric mean IC50 value across the whole cell panel): 0.994 nM; geometric mean IC50 value across the whole cell panel [2]: 0.84 ng/mL; IC50 ([2]; read-out: geometric mean IC50 value across the whole cell panel): 1.06 nM; IC50 Raji (CD13 negative) (Raji (CD13−)): 0.967 ng/mL (≈ 1.22 nM); IC50 (Raji (CD13−); read-out: IC50 Raji (CD13 negative)): 1.22 nM; IC50 RPMI8226 (CD13 negative) (RPMI 8226 (CD13−)): 0.928 ng/mL (≈ 1.17 nM); IC50 (RPMI 8226 (CD13−); read-out: IC50 RPMI8226 (CD13 negative)): 1.17 nM; IC50 NB-4 (CD13 positive) (NB 4 (CD13+)): 0.46 ng/mL (≈ 0.58 nM); IC50 (NB 4 (CD13+); read-out: IC50 NB-4 (CD13 positive)): 0.58 nM
3 | COc1ccc2[nH]c3c(c2c1)C[C@H](CN)N[C@]31CS[C@@H]2c3c(OC(C)=O)c(C)c4c(c3[C@H](COC1=O)N1[C@@H]2[C@H]2c3c(cc(C)c(OC)c3O)C[C@@H]([C@@H]1O)N2C)OCO4 [27-R] | 5.53E-10 Molar | 1.17E-09 Molar | 3.93E-09 Molar |  |  |  |  |  |  | TGI (MDA-MB-231): 5.41E-10 Molar
4 | COc1ccc2[nH]c3c(c2c1)C[C@@H](CN)N[C@]31CS[C@@H]2c3c(OC(C)=O)c(C)c4c(c3[C@H](COC1=O)N1[C@@H]2[C@H]2c3c(cc(C)c(OC)c3O)C[C@@H]([C@@H]1O)N2C)OCO4 [27-S] | 1.35E-09 Molar | 2.83E-09 Molar | 1.12E-08 Molar |  |  |  |  |  |  | 
5 | COc1c(C)cc2c(c1O)[C@@H]1[C@@H]3[C@@H]4SC[C@]5(N[C@@H](CN)Cc6c5oc5ccccc65)C(=O)OC[C@@H](c5c6c(c(C)c(OC(C)=O)c54)OCO6)N3[C@@H](C#N)[C@H](C2)N1C [46-R] |  |  |  |  |  |  |  |  |  | IC (TGI) (MDA-MB-231; Homo sapiens): 1.39 nM; IC (TGI) (HT29; Homo sapiens, HT-29): 1.39 nM
6 | COc1c(C)cc2c(c1O)[C@@H]1[C@@H]3[C@@H]4SC[C@]5(N[C@@H](CNC(=O)OCc6ccc(NC(=O)[C@H](CCCNC(N)=O)NC(=O)[C@@H](NC(=O)CCCCCN7C(=O)C=CC7=O)C(C)C)cc6)Cc6c5[nH]c5ccccc65)C(=O)OC[C@@H](c5c6c(c(C)c(OC(C)=O)c54)OCO6)N3[C@@H](C#N)[C@H](C2)N1C [DL 1] |  |  |  | 0.07 µg/mL to 0.43 µg/mL and 52.3 nM to 311 nM | 0.16 µg/mL and 115 nM | 0.18 µg/mL and 129 nM | 0.433 µg/mL and 311 nM | 0.116 µg/mL and 83.1 nM | 0.0728 µg/mL and 52.3 nM | 
7 | COc1c(C)cc2c(c1O)[C@@H]1[C@@H]3[C@@H]4SC[C@]5(N[C@@H](CNC(=O)OCc6ccc(NC(=O)[C@H](CCCNC(N)=O)NC(=O)[C@@H](NC(=O)CCOCCOCCOCCOCCNC(=O)CCN7C(=O)C=CC7=O)C(C)C)cc6)Cc6c5[nH]c5ccccc65)C(=O)OC[C@@H](c5c6c(c(C)c(OC(C)=O)c54)OCO6)N3[C@@H](C#N)[C@H](C2)N1C [DL 2] |  |  |  | 0.2 µg/mL to 0.47 µg/mL and 125 nM to 294 nM | 0.28 µg/mL and 173 nM | 0.31 µg/mL and 194 nM | 0.469 µg/mL and 294 nM | 0.2 µg/mL and 125 nM | 0.2 µg/mL and 125 nM | 
8 | COc1c(C)cc2c(c1O)[C@@H]1[C@@H]3[C@@H]4SC[C@]5(N[C@@H](CNC(=O)OCc6ccc(NC(=O)[C@H](C)NC(=O)[C@@H](NC(=O)CCOCCOCCOCCOCCNC(=O)CCN7C(=O)C=CC7=O)C(C)C)cc6)Cc6c5[nH]c5ccccc65)C(=O)OC[C@@H](c5c6c(c(C)c(OC(C)=O)c54)OCO6)N3[C@@H](C#N)[C@H](C2)N1C [DL 3] |  |  |  | 0.15 µg/mL to 0.28 µg/mL and 99.3 nM to 185 nM | 0.2 µg/mL and 133 nM | 0.24 µg/mL and 159 nM | 0.279 µg/mL and 185 nM | 0.16 µg/mL and 106 nM | 0.15 µg/mL and 99.3 nM | 
9 | COc1c(C)cc2c(c1O)[C@@H]1[C@@H]3[C@@H]4SC[C@]5(N[C@@H](CNC(=O)OCc6ccc(NC(=O)[C@H](C)NC(=O)[C@@H](NC(=O)CCOCCOCCOCCOCCNC(=O)CCN7C(=O)C=CC7=O)C(C)C)cc6)Cc6c5[nH]c5ccccc65)C(=O)OC[C@@H](c5c6c(c(C)c(OC(C)=O)c54)OCO6)N3[C@@H](O)[C@H](C2)N1C [DL 5] |  |  |  | 0.1 µg/mL to 0.19 µg/mL and 65.3 nM to 127 nM | 0.13 µg/mL and 88.4 nM | 0.191 µg/mL and 127 nM | 0.17 µg/mL and 113 nM | 0.0981 µg/mL and 65.3 nM | 0.0981 µg/mL and 65.3 nM | 
10 | COc1c(C)cc2c(c1O)[C@@H]1[C@@H]3[C@@H]4SC[C@]5(N[C@@H](CNC(=O)OCc6ccc(NC(=O)[C@H](CCCNC(N)=O)NC(=O)[C@@H](NC(=O)CCCCCN7C(=O)C=CC7=O)C(C)C)cc6)Cc6c5[nH]c5ccccc65)C(=O)OC[C@@H](c5c6c(c(C)c(OC(C)=O)c54)OCO6)N3[C@@H](O)[C@H](C2)N1C [DL 6] |  |  |  | 0.04 µg/mL to 0.3 µg/mL and 31 nM to 197 nM | 0.11 µg/mL and 78.9 nM |  |  |  |  | IC50 (HCC-1954 (HER2+); HCC-1954 cells, 72 hours incubation, read-out: IC50 HCC-1954 (HER2 positive)): 0.171 µg/mL and 124 nM; IC50 (MCF-7 (HER2−); MCF-7 cells, 72 hours incubation, read-out: IC50 MCF-7 (HER2 negative)): 0.273 µg/mL and 197 nM; IC50 (SK-BR-3 (HER2+); SK-BR-3 cells, 72 hours incubation, read-out: IC50 SK-BR-3 (HER2 positive)): 0.0709 µg/mL and 51.3 nM; IC50 (MDA-MB-231 (HER2−); MDA-MB-231 cells, 72 hours incubation, read-out: IC50 MDA-MB-231 (HER2 negative)): 0.0429 µg/mL and 31 nM
